Results from patent US12378243B2, “Quinoline compounds as inhibitors of KRAS” (Incyte Corporation, priority 2021, dated 2025).

Key:
KRAS G12D = KRAS G12D (Homo sapiens, UniProt P01116, G12D); experiment: GDP-GTP exchange assay, KRAS G12D; assay type: biochemical; conditions: bodipy-loaded KRAS G12D 2.5 nM, GppNHp 500 uM, SOS1 150 nM; 4 hours pre-incubation, 2 hours incubation; read-out: G12D_exchange
Method in brief: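 Nucleotide exchange started with 1 mM GppNHp and 300 nM SOS1, then 2 h at ambient temperature. IC50 from four-parameter logistic fit with variable Hill slope.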

Caco-2 cells = experiment: Caco2 assay (permeability, A-B); assay type: in vitro ADME; conditions: Papp absorptive direction (A-B), test compound 50 μM, 120 minutes at 37° C.
Method in brief: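 Caco-2 monolayers grown 22-25 days on Transwells, used only at TEER ≥300 Ω·cm^2. Compound at 50 μM in HBSS added apically, receiver HBSS with 4% BSA; 120 min at 37 °C. LCMS quantification; Papp from receiver flux slope, membrane area and initial donor amount.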

KRAS G12V mutant = KRAS G12V mutant (Homo sapiens, UniProt P01116, G12V); experiment: GDP-GTP exchange assay, KRAS G12V; assay type: biochemical; conditions: bodipy loaded KRAS G12V 2.5 nM; 3 hours incubation after adding GppNHp-SOS1 mixture; read-out: G12V_exchange
Chain of KRAS G12V mutant (P01116 1-188 isoform P01116-2 G12V): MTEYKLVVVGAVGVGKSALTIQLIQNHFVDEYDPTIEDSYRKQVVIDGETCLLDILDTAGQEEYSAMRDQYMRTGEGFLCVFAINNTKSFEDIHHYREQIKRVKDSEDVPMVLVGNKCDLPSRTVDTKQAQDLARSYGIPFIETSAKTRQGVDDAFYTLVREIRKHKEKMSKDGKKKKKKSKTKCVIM

Chain of KRAS G12D (P01116 1-188 isoform P01116-2 G12D): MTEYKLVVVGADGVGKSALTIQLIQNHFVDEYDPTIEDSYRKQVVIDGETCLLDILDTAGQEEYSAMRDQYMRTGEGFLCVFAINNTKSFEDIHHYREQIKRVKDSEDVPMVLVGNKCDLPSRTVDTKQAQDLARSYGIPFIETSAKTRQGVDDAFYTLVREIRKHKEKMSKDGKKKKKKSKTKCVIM

| IC50 (KRAS G12D) [nM] | Caco-2 (Caco-2 cells; Table 4) | IC50 (KRAS G12V mutant) [nM] | Caco-2 (Caco-2 cells; Table 3) | Structure (SMILES) |
| --- | --- | --- | --- | --- |
| < 100 | ++ (a Caco-2 value of >0.5 but ≤1) | < 100 | – | COC(=O)N1CCC[C@@H]1c1cc2c(-c3ccc(C(C)(C)O)nc3)nc3c(F)c(-c4cccc(Cl)c4Cl)c(CCC#N)cc3c2n1[C@H]1[C@H]2CN[C@@H]1C2 [Example 40, Methyl (2R)-2-(1-((1R,4R,5S)-2-azabicyclo[2.1.1]hexan-5-yl)-8-(2-cyanoethyl)-7-(2,3-dichlorophenyl)-6-fluoro-4-(6-(2-hydroxypropan-2-yl)pyridin-3-yl)-1H-pyrrolo[3,2-c]quinolin-2-yl)pyrrolidine-1-carboxylate] |
| < 100 | ++ (a Caco-2 value of >0.5 but ≤1) | < 100 | – | COC(=O)N1CCC[C@@H]1c1cc2c(-c3ccc(C(=O)N(C)C)nc3)nc3c(F)c(-c4cccc(Cl)c4Cl)c(CCC#N)cc3c2n1[C@H]1[C@H]2CN[C@@H]1C2 [Example 32, Methyl (2R)-2-(1-((1R,4R,5S)-2-azabicyclo[2.1.1]hexan-5-yl)-8-(2-cyanoethyl)-7-(2,3-dichlorophenyl)-4-(6-(dimethylcarbamoyl)pyridin-3-yl)-6-fluoro-1H-pyrrolo[3,2-c]quinolin-2-yl)pyrrolidine-1-carboxylate] |
| < 100 | ++ (a Caco-2 value of >0.5 but ≤1) | < 100 | – | CNC(=O)c1ccc(-c2nc3c(F)c(-c4cccc(Cl)c4Cl)c(CCC#N)cc3c3c2cc([C@H]2CCCN2C(=O)OC)n3[C@H]2[C@H]3CN[C@@H]2C3)cn1 [Example 33, Methyl (2R)-2-(1-((1R,4R,5S)-2-azabicyclo[2.1.1]hexan-5-yl)-8-(2-cyanoethyl)-7-(2,3-dichlorophenyl)-6-fluoro-4-(6-(methylcarbamoyl)pyridin-3-yl)-1H-pyrrolo[3,2-c]quinolin-2-yl)pyrrolidine-1-carboxylate] |
| < 100 | +++ (a Caco-2 value of >1) | < 100 | – | COC(=O)N1CCC[C@@H]1c1c(Cl)c2c(-c3ccc(C(C)(C)O)nc3)nc3c(F)c(-c4cccc(Cl)c4Cl)c(CCC#N)cc3c2n1[C@H]1[C@H]2CN[C@@H]1C2 [Example 53, Methyl (2R)-2-(1-((1R,4R,5S)-2-azabicyclo[2.1.1]hexan-5-yl)-3-chloro-8-(2-cyanoethyl)-7-(2,3-dichlorophenyl)-6-fluoro-4-(6-(2-hydroxypropan-2-yl)pyridin-3-yl)-1H-pyrrolo[3,2-c]quinolin-2-yl)pyrrolidine-1-carboxylate] |

Further lines, the molecule ahead of its results:

| Structure (SMILES) | IC50 (KRAS G12D) [nM] | Caco-2 (Caco-2 cells; Table 4) | IC50 (KRAS G12V mutant) [nM] | Caco-2 (Caco-2 cells; Table 3) |
| --- | --- | --- | --- | --- |
| C[C@H](Oc1nc2c(F)c(-c3cccc(Cl)c3Cl)c(CCC#N)cc2c2c1cc(CCC(=O)N1CCC1)n2[C@H]1[C@H]2CN[C@@H]1C2)[C@@H]1CCCN1C [Example 4, 3-(2-(3-(Azetidin-1-yl)-3-oxopropyl)-1-((1R,4R,5S)-2-azabicyclo[2.1.1]hexan-5-yl)-7-(2,3-dichlorophenyl)-6-fluoro-4-((S)-1-((S)-1-methylpyrrolidin-2-yl)ethoxy)-1H-pyrrolo[3,2-c]quinolin-8-yl)propanenitrile] | < 100 | – | < 100 | + (a Caco-2 value of 50.5) |
| Cc1cnc(-c2nc3c(F)c(-c4cccc5ccc(F)cc45)c(CCC#N)cc3c3c2cc([C@@H](C)N2CCOCC2=O)n3[C@H]2[C@H]3CN[C@@H]2C3)cn1 [Example 47, 3-(1-((1R,4R,5S)-2-Azabicyclo[2.1.1]hexan-5-yl)-6-fluoro-7-(7-fluoronaphthalen-1-yl)-4-(5-methylpyrazin-2-yl)-2-((R)-1-(3-oxomorpholino)ethyl)-1H-pyrrolo[3,2-c]quinolin-8-yl)propanenitrile] | < 100 | +++ (a Caco-2 value of >1) | < 100 | – |
| Cc1cc2c(O[C@@H](C)[C@@H]3CCCN3C)nc3c(F)c(-c4cccc5ccc(F)cc45)c(CCC#N)cc3c2n1[C@H]1[C@H]2CN[C@@H]1C2 [Example 27, 3-(1-((1R,4R,5S)-2-Azabicyclo[2.1.1]hexan-5-yl)-6-fluoro-7-(7-fluoronaphthalen-1-yl)-2-methyl-4-((S)-1-((S)-1-methylpyrrolidin-2-yl)ethoxy)-1H-pyrrolo[3,2-c]quinolin-8-yl)propanenitrile] | < 100 | – | < 100 | + (a Caco-2 value of 50.5) |
| CNC(=O)c1ccc(-c2nc3c(F)c(-c4cccc(Cl)c4Cl)c(CCC#N)cc3c3c2cc([C@@H](C)n2ccncc2=O)n3[C@H]2[C@H]3CN[C@@H]2C3)cc1F (single isomer, unassigned) [Example 54b] | < 100 | +++ (a Caco-2 value of >1) | < 100 | – |
| Cc1nc2c(F)c(-c3cccc(F)c3Cl)c(CCC#N)cc2c2c1cc([C@H]1CCCN1C(=O)C1CC1)n2[C@H]1[C@H]2CN[C@@H]1C2 [Example 34, 3-(1-((1R,4R,5S)-2-Azabicyclo[2.1.1]hexan-5-yl)-7-(2-chloro-3-fluorophenyl)-2-((R)-1-(cyclopropanecarbonyl)pyrrolidin-2-yl)-6-fluoro-4-methyl-1H-pyrrolo[3,2-c]quinolin-8-yl)propanenitrile] | < 100 | + (a Caco-2 value of 50.5) | 100 to 1000 | – |
| COC(=O)N[C@H](C)c1cc2c(C)nc3c(F)c(-c4cccc(Cl)c4Cl)c(CCC#N)cc3c2n1[C@H]1[C@H]2CN[C@@H]1C2 [Example 55, Methyl ((1R)-1-(1-((1R,4R,5S)-2-azabicyclo[2.1.1]hexan-5-yl)-8-(2-cyanoethyl)-7-(2,3-dichlorophenyl)-6-fluoro-4-methyl-1H-pyrrolo[3,2-c]quinolin-2-yl)ethyl)carbamate] | < 100 | +++ (a Caco-2 value of >1) | < 100 | – |
| Cc1nc2c(F)c(-c3cccc(Cl)c3Cl)c(CCC#N)cc2c2c1cc([C@@H](C)NC(=O)N1CC(F)(F)C1)n2[C@H]1[C@H]2CN[C@@H]1C2 [Example 70, N-((1R)-1-(1-((1R,4R,5S)-2-azabicyclo[2.1.1]hexan-5-yl)-8-(2-cyanoethyl)-7-(2,3-dichlorophenyl)-6-fluoro-4-methyl-1H-pyrrolo[3,2-c]quinolin-2-yl)ethyl)-3,3-difluoroazetidine-1-carboxamide] | < 100 | +++ (a Caco-2 value of >1) | < 100 | – |
